In patent US20260250320A1, “LIPIDATED PEPTIDE INHIBITORS OF INTERLEUKIN-23 RECEPTOR” (Janssen Pharmaceutica NV, priority 2023, published 2026) one finds IC50 data, which are given here for four molecules.

As usually defined, the IC50 is the concentration that inhibits the measured activity by half. A lower IC50 goes with inhibition by little substance.

*1 amine or outer side, *2 acyl side, *3 side chain or, on linkers, in order; H or OH if unused. Where a SMILES comes first, the peptide text is derived from it. Bridges are numbered along the chain shown (N, C = ends). Side-chain parts run from the residue outwards. [ ]: non-standard residue; d: D form. The star is where a group is joined. Trp(7-Me) = Cc1cccc2c(C[C@H](N)C(=O)O)c[nH]c12; C18 diacid = O=C(O)CCCCCCCCCCCCCCCCC(=O)*; γGlu = O=C(O)[C@H](CCC(=O)[*:2])N[*:1]; 2Nal = N[C@@H](Cc1ccc2ccccc2c1)C(=O)O; AEF = NCCOc1ccc(C[C@H](N)C(=O)O)cc1; X2 = C[N+](C)(C)C[C@@H](CC(=O)O)N*; 2Pal = N[C@@H](Cc1ccccn1)C(=O)O; 3Pal = N[C@@H](Cc1cccnc1)C(=O)O; Pen = CC(C)(S)[C@H](N)C(=O)O; Suc = O=C(CCC(=O)[*:2])[*:1]; Thp = NC1(C(=O)O)CCOCC1; AEEA = NCCOCCOCC(=O)O; Sar = CNCC(=O)O

One assay concerns the target T1, IL-23R (Homo sapiens, UniProt Q5VWK5).
T1 construct: HEK293 cells containing IL-23R, IL-12Rβ1 and a firefly luciferase reporter gene driven by a STAT-inducible promoter (Promega); host or cells: HEK293
T1 sequence (Q5VWK5 24-629): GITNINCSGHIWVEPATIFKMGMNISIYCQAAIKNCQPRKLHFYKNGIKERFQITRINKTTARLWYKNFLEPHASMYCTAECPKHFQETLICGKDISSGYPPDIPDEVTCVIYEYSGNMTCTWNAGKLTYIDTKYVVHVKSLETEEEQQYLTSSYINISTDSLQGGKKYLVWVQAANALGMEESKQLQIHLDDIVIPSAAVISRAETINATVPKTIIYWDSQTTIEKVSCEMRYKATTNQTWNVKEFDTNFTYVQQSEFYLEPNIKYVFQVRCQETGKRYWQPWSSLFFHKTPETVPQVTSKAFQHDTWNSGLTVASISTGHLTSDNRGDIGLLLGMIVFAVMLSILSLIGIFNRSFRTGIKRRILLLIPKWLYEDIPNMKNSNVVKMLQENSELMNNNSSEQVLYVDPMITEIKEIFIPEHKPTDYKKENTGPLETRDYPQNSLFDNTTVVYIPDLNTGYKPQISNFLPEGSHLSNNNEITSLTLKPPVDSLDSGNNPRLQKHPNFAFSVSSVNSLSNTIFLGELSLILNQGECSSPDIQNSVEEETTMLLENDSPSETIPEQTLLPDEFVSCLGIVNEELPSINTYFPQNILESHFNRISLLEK
Put plainly: IL23R Reporter Assay. In kind it is cell-based. Particulars: HEK293 cells containing IL-23R, IL-12Rβ1 and STAT-inducible firefly luciferase reporter; 10 ng/mL IL-23 (EC90); 5 h. The method, boiled down: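 HEK293 cells carrying IL-23R, IL-12Rβ1 and a STAT-driven firefly luciferase reporter (4000 cells/well) received compound, then 10 ng/mL IL-23 solution (EC90), and were incubated for 5 h at 37° C. BioGlo luminescence was normalised to IL-23 alone (0%) and 30 μM control inhibitor (100%). IC50 came from a 4-parameter Hill fit.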
For orientation: A reporter such as luciferase makes a cellular process visible.

Assay [1] has as its system IL-23-stimulated phosphorylated STAT3 in peripheral blood mononuclear cells (PBMCs). Put plainly: PBMC pSTAT3 Assay. Type of assay: cell-based. Particulars: PBMCs from healthy donors; 30 min preincubation with peptide; IL-23 5 ng/mL for 30 min; phospho-STAT3 by MSD. The method in brief:
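Healthy-donor PBMCs expanded 4 days on anti-CD3 with 100 ng/mL IL-1β, starved ~4 h in RPMI-0.1% BSA, preincubated 30 min with peptide, then stimulated 30 min at 37 °C with 5 ng/mL IL-23. Lysate pSTAT3 measured by MSD phospho-STAT panel; IC50 derived.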

In the case of `Cc1cccc2c(C[C@@H]3NC(=O)[C@H]([C@@H](C)O)NC(=O)[C@H](CC(N)=O)NC(=O)[C@@H](NC(=O)[C@@H](CCCNC(=N)N)NC(=O)COCCOCCNC(=O)COCCOCCNC(=O)CC[C@H](NC(=O)CCCCCCCCCCCCCCCCC(=O)O)C(=O)O)C(C)(C)SSC(C)(C)[C@@H](C(=O)N[C@@H](Cc4ccc(OCCN)cc4)C(=O)N[C@@H](Cc4ccc5ccccc5c4)C(=O)NC4(C(=O)N[C@@H](CCC(=O)O)C(=O)N[C@@H](CC(N)=O)C(=O)N[C@@H](Cc5cccnc5)C(=O)N(C)CC(N)=O)CCOCC4)NC(=O)[C@H](CCCCNC(=O)CCC(=O)N[C@H](CC(=O)O)C[N+](C)(C)C)NC3=O)c[nH]c12` [compound 46, HOC18gEPEG2PEG2CO-r-Pen(3)-N-T-7MeW-K(d)-Pen(3)-AEF-2Nal-THP-E-N-3Pya-Sar-CONH2] ({C18 diacid-γGlu-AEEA-AEEA}-[dR][Pen]NT[Trp(7-Me)]K([Suc-X2])[Pen][AEF][2Nal][Thp]EN[3Pal][Sar]-NH2; disulfide 2-7), the IC50 is less than 0.05 µM against IL-23R and less than 0.0005 µM in assay [1].

As to `CC(=O)N[C@H](CCCNC(=N)N)C(=O)N[C@@H]1C(=O)N[C@@H](CC(N)=O)C(=O)N[C@@H]([C@@H](C)O)C(=O)N[C@@H](Cc2c[nH]c3c(C)cccc23)C(=O)N[C@@H](CCCCNC(=O)CCC(=O)N[C@H](CC(=O)O)C[N+](C)(C)C)C(=O)N[C@H](C(=O)N[C@@H](Cc2ccc(OCCN)cc2)C(=O)N[C@@H](Cc2ccc3ccccc3c2)C(=O)NC2(C(=O)N[C@@H](CCCCNC(=O)COCCOCCNC(=O)COCCOCCNC(=O)CC[C@H](NC(=O)CCCCCCCCCCCCCCCCC(=O)O)C(=O)O)C(=O)N[C@@H](CC(N)=O)C(=O)N[C@@H](Cc3cccnc3)C(=O)N(C)CC(N)=O)CCOCC2)C(C)(C)SSC1(C)C` [compound 48, MeCO-r-Pen(3)-N-T-7MeW-K(d)-Pen(3)-AEF-2Nal-THP-K(PEG2PEG2gEC18OH)-N-3Pya-Sar-CONH2] (Ac-[dR][Pen]NT[Trp(7-Me)]K([Suc-X2])[Pen][AEF][2Nal][Thp]K([AEEA-AEEA-γGlu-C18 diacid])N[3Pal][Sar]-NH2; disulfide 2-7), the IC50 is 0.05 to 0.5 µM on IL-23R and less than 0.0005 µM in assay [1].

For the molecule `CC(=O)NCCCC[C@@H]1NC(=O)[C@H](Cc2c[nH]c3c(C)cccc23)NC(=O)[C@H]([C@@H](C)O)NC(=O)[C@H](CC(N)=O)NC(=O)[C@@H](NC(=O)[C@@H](CCCNC(=N)N)NC(=O)CCC(=O)N[C@H](CC(=O)O)C[N+](C)(C)C)C(C)(C)SSC(C)(C)[C@@H](C(=O)N[C@@H](Cc2ccc(OCCN)cc2)C(=O)N[C@@H](Cc2ccc3ccccc3c2)C(=O)NC2(C(=O)N[C@@H](CCCCNC(=O)COCCOCCNC(=O)COCCOCCNC(=O)CC[C@H](NC(=O)CCCCCCCCCCCCCCCCC(=O)O)C(=O)O)C(=O)N[C@@H](CC(N)=O)C(=O)N[C@@H](Cc3ccccn3)C(=O)N(C)CC(N)=O)CCOCC2)NC1=O` [compound 49, succiniccarn-r-Pen(3)-N-T-7MeW-K(Ac)-Pen(3)-AEF-2Nal-THP-K(PEG2PEG2gEC18OH)-N-3Pya-Sar-CONH2] ({X2-Suc}-[dR][Pen]NT[Trp(7-Me)]K(Ac)[Pen][AEF][2Nal][Thp]K([AEEA-AEEA-γGlu-C18 diacid])N[2Pal][Sar]-NH2; disulfide 2-7), the half-maximal inhibitory concentration (IC50) on IL-23R is 0.05 to 0.5 µM; in assay [1], less than 0.0005 µM.

Turning to `C=C(O)[C@H](CCC(=O)NCCOCCOCC(=O)NCCOCCOCC(=O)NCCCC[C@H](NC(=O)CN(C)C(=O)[C@H](Cc1cccnc1)NC(=O)[C@H](CC(N)=O)NC(=O)[C@H](CCCCNC(=O)CCC(=O)N[C@H](CC(=O)O)C[N+](C)(C)C)NC(=O)C1(NC(=O)[C@H](Cc2ccc3ccccc3c2)NC(=O)[C@H](Cc2ccc(OCCN)cc2)NC(=O)[C@H]2NC(=O)[C@H](CCCCNC(C)=O)NC(=O)[C@H](Cc3c[nH]c4c(C)cccc34)NC(=O)[C@H]([C@@H](C)O)NC(=O)[C@H](CC(N)=O)NC(=O)[C@@H](NC(C)=O)C(C)(C)SSC2(C)C)CCOCC1)C(N)=O)NC(=O)CCCCCCCCCCCCCCCCC(=O)O` [compound 50, MeCO-Pen(3)-N-T-7MeW-K(Ac)-Pen(3)-AEF-2Nal-THP-K(d)-N-3Pya-Sar-K(PEG2PEG2gEC18OH)-CONH2], the values for the IC50 (against IL-23R; in assay [1]) were 0.05 to 0.5 µM and less than 0.0005 µM, respectively.
